The first assay has as its system Human Nuclear Factor (erythroid-derived2)-like 2 (Nrf2). Put plainly: Nrf2 transcription factor activity reporter assay in human cell line (INDIGO luciferase reporter). In kind it is cell-based. Particulars: reporter cells, 24 hours incubation, second line of cell; read-out: Nrf2 EC50, second line of cell (head does not name it). The procedure:
The Nrf2 reporter assay was performed following the protocol of the Human Nuclear Factor (erythroid-derived2)-like 2 (Nrf2) Reporter Assay System (INDIGO Bioscience, #IB10001). Nrf2 Reporter Cell was thawed and pre-incubated in Cell Recovery Medium (CRM) for 6 hours. The media was then removed and the cells were incubated with Compound Screening Medium (CSM) in the absence (negative control) or presence of increasing concentrations of test compounds (typical dilution: 128 pM, 640 pM, 3.2 nM, 16 nM, 80 nM, 400 nM, […] in duplicates) for 24 hours. For positive control, cells activated with CDDO or Nrf2 agonists described in literature. Following 24 hours incubation, the media was removed and Luciferase Detection Reagent (LDR) added. The firefly luciferase activity was quantified using a plate reader. Results were normalized by positive and negative controls.
For the compound `COc1cc(/C=C/c2ccccc2)cc(OC)c1C(C)=O` [Compound 107, 1-{2,6-dimethoxy-4-[(E)-2-phenylethenyl]phenyl} ethenone], the EC50 was greater than 0.1 µM.
In the case of `CC(C)c1c(O)cc(-c2ccc3ccccc3n2)cc1O` [Compound 47], the EC50 worked out at 0.53 µM.
On the same count and under the same terms, as for `CC(C)c1c(O)cc(-c2nc3ccccc3[nH]2)cc1O` [Compound 50], the figure is 0.02 µM; as for `COc1cc(Oc2ccccc2)cc(O)c1C(C)C` [Compound 133, 2-isopropyl-3-methoxy-5-phenoxyphenol], greater than 0.4 µM; as for `CC(C)c1ncc(-c2cnc3ccccc3c2)cc1O` [Compound 99], 0.1 µM.
Take `C=C(C)c1c(OC)cc(/C=C/c2ccccc2)cc1OC` [Compound 110, 1,3-dimethoxy-5-[(E)-2-phenylethenyl]-2-(prop-1-en-2-yl)benzene]: the EC50 is greater than 0.1 µM.
Take `CC(C)c1ncc(/C=C/c2ccc(F)cc2)cc1O` [Compound 114, 5-[(E)-2-(4-fluorophenyl)ethenyl]-2-isopropylpyridin-3-ol]: the EC50 was 0.019 µM.
Same read-out and setting: as for `CC(C)Oc1cc(/C=C/c2ccccc2)cc(O)n1` [Compound 106, (E)-6-isopropoxy-4-styrylpyridin-2-ol], the figure is greater than 0.4 µM.

The target in a further assay is T1, Human Aryl Hydrocarbon Receptor (AHR) (Homo sapiens, UniProt P35869).
T1 construct: purchased INDIGO Bioscience IB06001-32; host or cells: AHR Reporter Cell (proprietary kit cells)
T1 sequence (P35869 11-848): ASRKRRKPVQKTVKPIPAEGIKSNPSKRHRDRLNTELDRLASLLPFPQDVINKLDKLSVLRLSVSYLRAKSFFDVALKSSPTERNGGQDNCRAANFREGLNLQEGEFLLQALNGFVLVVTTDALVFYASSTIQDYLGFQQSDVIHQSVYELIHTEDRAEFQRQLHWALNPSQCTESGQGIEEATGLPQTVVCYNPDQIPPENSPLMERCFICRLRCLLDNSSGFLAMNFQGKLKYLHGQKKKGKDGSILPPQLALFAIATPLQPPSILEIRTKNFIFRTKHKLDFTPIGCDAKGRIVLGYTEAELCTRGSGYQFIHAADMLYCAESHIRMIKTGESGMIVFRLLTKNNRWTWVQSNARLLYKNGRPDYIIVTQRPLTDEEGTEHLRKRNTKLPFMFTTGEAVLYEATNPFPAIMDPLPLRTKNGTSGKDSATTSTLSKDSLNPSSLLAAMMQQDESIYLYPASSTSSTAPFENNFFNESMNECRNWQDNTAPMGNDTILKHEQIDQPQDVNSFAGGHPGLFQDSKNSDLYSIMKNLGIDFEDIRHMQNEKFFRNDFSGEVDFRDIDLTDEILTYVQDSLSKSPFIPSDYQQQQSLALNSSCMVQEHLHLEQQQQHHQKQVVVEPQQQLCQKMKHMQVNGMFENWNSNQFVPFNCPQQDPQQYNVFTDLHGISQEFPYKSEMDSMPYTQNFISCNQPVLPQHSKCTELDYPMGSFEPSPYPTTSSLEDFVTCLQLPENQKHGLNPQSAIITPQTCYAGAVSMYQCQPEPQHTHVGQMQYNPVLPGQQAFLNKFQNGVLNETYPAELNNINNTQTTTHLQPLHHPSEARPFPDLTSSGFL
Put plainly: AHR agonist reporter assay in human cell line (INDIGO luciferase reporter).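 Further: firefly luciferase luminescence read on a plate reader, values normalized against positive and negative controls.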 The following applies: reporter cells, 24 hours incubation, first line of cell; read-out: AHR reEC50. It counts as cell-based. Background: In a reporter assay the amount or activity of a reporter protein is the signal.
Experimental: The AHR reporter assay was performed following the protocol of the Human Aryl Hydrocarbon Receptor (AHR) Reporter Assay System (INDIGO Bioscience, #IB06001-32). AHR Reporter Cell was thawed and pre-incubated in Cell Recovery Medium (CRM) for 6 hours. […] Following 24 hours incubation, the media was removed and Luciferase Detection Reagent (LDR) added. The firefly luciferase activity was quantified using a plate reader. Results were normalized by positive and negative controls.
Take `CC(C)c1ncc(/C=C/c2ccc(F)cc2)cc1O` [Compound 114, 5-[(E)-2-(4-fluorophenyl)ethenyl]-2-isopropylpyridin-3-ol]: the EC50 turned out to be 0.143 µM.

The same assay, now with this note: reporter cells, 24 hours incubation, second line of cell; read-out: AHR abEC50.
Consider `COc1cc(/C=C/c2ccccc2)cc(OC)c1C(C)=O` [Compound 107, 1-{2,6-dimethoxy-4-[(E)-2-phenylethenyl]phenyl} ethenone], for which the EC50 is greater than 0.1 µM.
Take `CC(C)c1c(O)cc(-c2ccc3ccccc3n2)cc1O` [Compound 47]: the EC50 came out at 0.00421 µM.
`CC(C)c1c(O)cc(-c2nc3ccccc3[nH]2)cc1O` [Compound 50]: the EC50 was determined as 0.0174 µM.
Take `COc1cc(Oc2ccccc2)cc(O)c1C(C)C` [Compound 133, 2-isopropyl-3-methoxy-5-phenoxyphenol]: the EC50 amounted to 0.233 µM.
For `CC(C)c1ncc(-c2cnc3ccccc3c2)cc1O` [Compound 99], the EC50 is greater than 0.1 µM.
As to `CC(C)c1ncc(-c2cc3cccnc3cc2F)cc1O` [Compound 58], the EC50 is greater than 0.1 µM.
On to `C=C(C)c1c(OC)cc(/C=C/c2ccccc2)cc1OC` [Compound 110, 1,3-dimethoxy-5-[(E)-2-phenylethenyl]-2-(prop-1-en-2-yl)benzene], for which the EC50 was greater than 0.1 µM.
In the case of `CC(C)c1c(O)cc(-c2ccc3nccc(F)c3c2)cc1O` [Compound 8], the EC50 is greater than 0.1 µM.
As to `CC(C)c1c(O)cc(-c2ccc3cc(F)ccc3n2)cc1O` [Compound 9], the EC50 was found to be 0.0209 µM.
On to `CC(C)c1ncc(-c2nccc3cccnc23)cc1O` [Compound 95], for which the EC50 was greater than 0.1 µM.
For the compound `CC(C)c1c(O)cc(-c2cc(F)c3nccnc3c2)cc1O` [Compound 36], the EC50 is greater than 0.1 µM.
For `CC(C)c1nc2c(cc1O)CC(c1ccccc1)O2` (centres unmarked) [Compound 127, 6-isopropyl-2-phenyl-2H,3H-furo[2,3-b]pyridin-5-ol], the EC50 was greater than 0.1 µM.
As to `CC(C)c1ncc(-c2cc3cnccc3cc2F)cc1O` [Compound 85], the EC50 is greater than 0.1 µM.
Turning to `COc1cc(-c2cc(O)c(C(C)C)c(O)c2)cc2cccnc12` [Compound 18], the EC50 was greater than 0.1 µM.
For `CC(C)c1ncc(-c2cc(F)c3ncccc3c2)cc1O` [Compound 57], the EC50 was greater than 0.1 µM.
`CC(C)c1c(O)cc(-c2ccc(F)c3ccc(C(F)(F)F)nc23)cc1O` [Compound 13]: the EC50 is greater than 0.1 µM.
Consider `CC(C)c1onc(/C=C/c2ccccc2)c1O` [Compound 109, 5-isopropyl-3-[(E)-2-phenylethenyl]-1,2-oxazol-4-ol], for which the EC50 is greater than 0.1 µM.
With `CC(C)c1c(O)cc(S(=O)(=O)c2ccccc2)cc1O` [Compound 131, 2-isopropyl-5-(phenylsulfonyl)benzene-1,3-diol], the EC50 is greater than 0.4 µM.
On to `CC(C)c1c(O)cc(Oc2ccccc2)cc1O` [Compound 132, 2-isopropyl-5-phenoxybenzene-1,3-diol], for which the EC50 is greater than 0.4 µM.
On to `CC(C)c1ncc(-c2ccc3nccnc3c2)cc1O` [Compound 91], for which the EC50 was greater than 0.1 µM.
As for `CC(C)c1ncc(/C=C/c2ccccn2)cc1O` [Compound 136], the EC50 was greater than 0.1 µM.
In the case of `CC(C)c1ncc(-c2ncnc3ccccc23)cc1O` [Compound 92], the EC50 is greater than 0.1 µM.
`CC(C)c1c(O)cc(-c2ccc3ncnc(N)c3c2)cc1O` [Compound 42]: the EC50 was greater than 0.1 µM.
Still for that read-out and setting: as for `CC(C)c1ncc(-c2cnc3c(F)c(F)ccc3c2)cc1O` [Compound 96], the figure is greater than 0.1 µM; as for `CC(C)c1ncc(-c2ccnc3c(Cl)cccc23)cc1O` [Compound 68], greater than 0.1 µM; as for `Cc1ccnc2cc(-c3cnc(C(C)C)c(O)c3)ccc12` [Compound 73], greater than 0.1 µM.
Turning to `CC(C)c1c(O)cc(-c2nccc3cccnc23)cc1O` [Compound 44], the EC50 is greater than 0.1 µM.
For `CC(C)c1ncc(-c2cc(F)c3ncccc3c2F)cc1O` [Compound 63], the EC50 is greater than 0.1 µM.
Turning to `CC(C)c1ncc(-c2cccc3ncccc23)cc1O` [Compound 71], the EC50 was greater than 0.1 µM.
In the case of `CC(C)c1c(O)cc(-c2cnc3c(C(F)(F)F)cccc3c2)cc1O` [Compound 51], the EC50 was 0.09 µM.
Consider `CC(C)c1ncc(-c2cnc3c(F)cc(N)cc3c2)cc1O` [Compound 53], for which the EC50 is greater than 0.1 µM.
Same read-out and setting: as for `CC(C)c1c(O)cc(-c2ccc3nccc(C#N)c3c2)cc1O` [Compound 30], the figure is greater than 0.1 µM; as for `CC(C)c1ncc(/C=C/c2ccc(F)cc2)cc1O` [Compound 114, 5-[(E)-2-(4-fluorophenyl)ethenyl]-2-isopropylpyridin-3-ol], 0.12 µM.
For the compound `CC(C)c1ncc(-c2ccc3cc(F)ccc3n2)cc1O` [Compound 60], the EC50 was greater than 0.1 µM.
With `CC(C)c1ncc(-c2ccnc3c(F)cccc23)cc1O` [Compound 54], the EC50 is greater than 0.1 µM.
Still for that read-out and setting: as for `CC(C)c1ncc(-c2ccc3ncccc3c2F)cc1O` [Compound 61], the figure is greater than 0.1 µM; as for `CC(C)Oc1cc(/C=C/c2ccccc2)cc(O)n1` [Compound 106, (E)-6-isopropoxy-4-styrylpyridin-2-ol], 0.343 µM; as for `CC(C)c1ncc(/C=C/c2ccccc2)cc1N` [Compound 117, 2-isopropyl-5-[(E)-2-phenylethenyl]pyridin-3-amine], greater than 0.1 µM.
Same read-out and setting: as for `CC(C)c1ncc(-c2cc(F)c3cnc(N)nc3c2)cc1O` [Compound 90], the figure is greater than 0.1 µM; as for `CC(C)c1ncc(-c2cncc3ccc(F)cc23)cc1O` [Compound 83], greater than 0.1 µM.
Still for that read-out and setting: the value for `CC(C)c1c(O)cc(-c2cc(F)c3ncccc3c2)cc1O` [Compound 6] was 0.109 µM; that for `CC(C)c1c(O)cc(-c2cnc3ccc(F)cc3c2)cc1O` [Compound 11] was greater than 0.1 µM; that for `COc1cc2ncccc2cc1-c1cnc(C(C)C)c(O)c1` [Compound 72] was greater than 0.1 µM.
As to `CC(C)c1c(O)cc(-c2cnc3c(F)c(F)ccc3c2)cc1O` [Compound 45], the EC50 was 0.0389 µM.
For `CC(C)c1c(O)cc(-c2cc(O)cc3cccnc23)cc1O` [Compound 15], the EC50 is greater than 0.1 µM.
`COc1cc2ncccc2cc1-c1cc(O)c(C(C)C)c(O)c1` [Compound 21]: the EC50 is greater than 0.1 µM.
For `CC(C)c1c(O)cc(-c2cc(N)c3ccccc3n2)cc1O` [Compound 24], the EC50 is greater than 0.1 µM.
Consider `CC(C)c1c(O)cc(-c2ccc3nccnc3c2)cc1O` [Compound 40], for which the EC50 is greater than 0.1 µM.
As to `COc1ccc2ccc(-c3cc(O)c(C(C)C)c(O)c3)cc2n1` [Compound 27], the EC50 was greater than 0.1 µM.
For `CC(C)c1c(O)cc(-c2cc(F)c3ncccc3c2F)cc1O` [Compound 12], the EC50 is greater than 0.1 µM.
With `CC(C)c1c(O)cc(-c2cnc3cccc(O)c3c2)cc1O` [Compound 23], the EC50 is greater than 0.1 µM.
For `CC(C)c1ncc(-c2cccc3ccc(C(=O)O)nc23)cc1O` [Compound 76], the EC50 was greater than 0.1 µM.
Consider `CC(C)c1c(O)cc(-c2c(Cl)cc3c(O)ncnc3c2F)cc1O` [Compound 38], for which the EC50 was greater than 0.1 µM.
Regarding `Cc1cnc2ccc(-c3cnc(C(C)C)c(O)c3)cc2c1` [Compound 77], the EC50 was greater than 0.1 µM.
Same read-out and setting: the value for `Cc1cnc2ccc(-c3cc(O)c(C(C)C)c(O)c3)cc2c1` [Compound 26] was greater than 0.1 µM.

Still in this assay, the particulars now being: reporter cells, 24 hours, value in brackets.
Turning to `CC(C)c1ncc(/C=C/c2ccc(F)cc2)cc1O` [Compound 114, 5-[(E)-2-(4-fluorophenyl)ethenyl]-2-isopropylpyridin-3-ol], the “AHR % activation to Tapinarof at 1 μM” value is 88.5%.

The record behind these values is patent publication US20250136556A1, “NOVEL MODULATORS OF THE ARYL HYDROCARBON RECEPTOR AND METHODS OF USE THEREOF” (Allianthera (Suzhou) Biopharmaceutical Co., Ltd., priority 2021, published 2025).
